Experiment in all cases: relative viability (nuclei count vs DMSO), 5 days (fraction); higher = more cells survive
Compound in the test “Dactolisib + Tozasertib”: Cn1c(=O)n(-c2ccc(C(C)(C)C#N)cc2)c2c3cc(-c4cnc5ccccc5c4)ccc3ncc21 [Dactolisib] + Cc1cc(Nc2cc(N3CCN(C)CC3)nc(Sc3ccc(NC(=O)C4CC4)cc3)n2)n[nH]1 [Tozasertib] (partner 0.1 µM)
The procedure, abridged:
(§1)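 Five library-drug doses in √10 steps were combined with a fixed anchor-drug dose, or a single drug was given alone, by pin tool to lung cancer cell lines in 1536-well plates the day after seeding. Nuclei were stained and counted after 5 days. Relative viability is the nuclei count in treated wells over that in vehicle wells, taken as the median of duplicate plates.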

Compound in the test “AZ505 + Linsitinib”: C1CCC(CC1)N(CCNCCC2=C3C(=C(C=C2)O)NC(=O)CO3)C(=O)CCNCCC4=CC(=C(C=C4)Cl)Cl [AZ505] + C[C@]1(O)C[C@@H](c2nc(-c3ccc4ccc(-c5ccccc5)nc4c3)c3c(N)nccn32)C1 [Linsitinib] (partner 1 µM)
The method in brief: as §1

Compound in the test “AZ505 + Lapatinib”: C1CCC(CC1)N(CCNCCC2=C3C(=C(C=C2)O)NC(=O)CO3)C(=O)CCNCCC4=CC(=C(C=C4)Cl)Cl [AZ505] + CS(=O)(=O)CCNCc1ccc(-c2ccc3ncnc(Nc4ccc(OCc5cccc(F)c5)c(Cl)c4)c3c2)o1 [Lapatinib] (partner 2 µM)
The method in brief: as §1

Compound in the test “Dactolisib + Decitabine”: Cn1c(=O)n(-c2ccc(C(C)(C)C#N)cc2)c2c3cc(-c4cnc5ccccc5c4)ccc3ncc21 [Dactolisib] + Nc1ncn([C@H]2C[C@H](O)[C@@H](CO)O2)c(=O)n1 [Decitabine] (partner 2 µM)
The method in brief: as §1

On to UMC-11, for which the relative viability with Dactolisib + Tozasertib (first compound 0.002 µM) amounted to 0.214; with Dactolisib + Tozasertib (first compound 0.006325 µM) it was 0.198; in the test with Dactolisib + Tozasertib (first compound 0.02 µM), 0.216; with Dactolisib + Tozasertib (first compound 0.06325 µM), 0.221; with Dactolisib + Tozasertib (first compound 0.2 µM), 0.23; in the test with AZ505 + Linsitinib (first compound 0.08 µM), 0.971. Also, the relative viability with AZ505 + Linsitinib (first compound 0.253 µM) is 1.06; with AZ505 + Linsitinib (first compound 0.8 µM), 1.01; in the test with AZ505 + Linsitinib (first compound 2.53 µM) it was 0.951; in the test with AZ505 + Linsitinib (first compound 8 µM) it was 1.05; in the test with AZ505 + Lapatinib (first compound 0.08 µM), 0.86; with AZ505 + Lapatinib (first compound 0.253 µM) it was 0.943. Moreover, the relative viability with AZ505 + Lapatinib (first compound 0.8 µM) worked out at 0.901; with AZ505 + Lapatinib (first compound 2.53 µM), 1.11; with AZ505 + Lapatinib (first compound 8 µM), 0.976; with Dactolisib + Decitabine (first compound 0.002 µM), 0.577; in the test with Dactolisib + Decitabine (first compound 0.006325 µM), 0.601; with Dactolisib + Decitabine (first compound 0.02 µM), 0.514. Also, the relative viability in the test with Dactolisib + Decitabine (first compound 0.06325 µM) worked out at 0.366; with Dactolisib + Decitabine (first compound 0.2 µM) it was 0.346.

(Values after the supplement of paper PMC10307832.)
